Experimental data: US12522562B2, “Intestine-specific partial agonists of farnesoid X receptor and uses thereof” (EWHA DrugDesignHouse Co., Ltd., priority 2022, dated 2026)
Like-named read-outs stand apart in the source and are kept apart here.

Target: T1, FXR (Homo sapiens, UniProt Q96RI1)
T1 sequence (Q96RI1 1-486): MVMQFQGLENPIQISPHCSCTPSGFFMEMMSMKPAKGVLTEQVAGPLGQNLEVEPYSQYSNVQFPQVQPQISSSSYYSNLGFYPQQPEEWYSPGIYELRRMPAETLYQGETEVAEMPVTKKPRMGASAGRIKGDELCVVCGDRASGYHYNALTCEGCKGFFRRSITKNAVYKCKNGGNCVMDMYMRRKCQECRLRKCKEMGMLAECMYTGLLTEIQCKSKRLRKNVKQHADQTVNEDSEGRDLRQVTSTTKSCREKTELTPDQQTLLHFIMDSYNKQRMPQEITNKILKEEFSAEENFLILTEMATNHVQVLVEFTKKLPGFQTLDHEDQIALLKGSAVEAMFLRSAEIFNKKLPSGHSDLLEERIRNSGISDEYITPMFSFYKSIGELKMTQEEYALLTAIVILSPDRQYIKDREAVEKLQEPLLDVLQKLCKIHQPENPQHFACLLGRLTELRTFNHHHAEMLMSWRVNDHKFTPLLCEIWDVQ
Test: PathHunter NHR protein interaction assay, agonist mode (FXR)
Details: for Emax: relative to GW4064, top conc. 3.3 μM

[1] = Table 4, 5 concentrations, 3-fold dilution from 3.3 μM (GW4064: 10 conc. from 10 μM), one experiment in duplicate, NA = inactive at 3.3 μM
[2] = read-out: % max. rel. efficacy, Table 4, one experiment in duplicate
[3] = read-out: % max. rel. efficacy, Table 2, one experiment in duplicate

Experimental: PathHunter® CHO-K1 FXR protein interaction cells were expanded from freezer stocks according to standard procedures. Cells were seeded in a total volume of 20 μL into white walled, 384-well microplates and incubated at 37° C. for the appropriate time prior to testing. Assay media contained charcoal-dextran filtered serum to reduce the level of hormones present. For agonist determination, cells were incubated with sample to induce response. […] For antagonist determination, cells were pre-incubated with antagonist followed by agonist challenge at the EC80 concentration. […] Microplates were read following signal generation with a PerkinElmer Envision™ instrument for chemiluminescent signal detection. Compound activity was analyzed using CBIS data analysis suite (ChemInnovation, CA). For agonist mode assays, percentage activity was calculated using the following formula: % Activity=100%×(mean RLU of test sample−mean RLU of vehicle control)/(mean MAX control ligand−mean RLU of vehicle control).
In this assay, two weakly complementing fragments of the β-galactosidase are expressed within stably transfected cells. The complementing fragments of the β-galactosidase are translationally fused to the C-terminus of a full-length FXR and to the steroid receptor coactivator peptide (SRCP), respectively. When bound by ligand, the FXR will migrate to the nucleus and recruit the SRCP domain, whereby complementation occurs, generating a unit of active β-galactosidase and production of chemiluminescent signal. Thus, measurement of chemiluminescent signal directly reflects FXR-coactivator interaction.

Compound | EC50 [1] [µM] | Emax [2] [%] | Emax [3] [%] | EC50 [µM]
CCOC(=O)/C=C/c1cc(N(Cc2ccc(-c3ccc(N(C)C)cc3)c(C#N)c2)C(=O)C2CCCCC2)ccc1F [Example 15] | 1.3 | 23 |  | 
CN(C)c1ccc(-c2ccc(CN(C(=O)C3CCCCC3)c3cccc(/C=C/C(=O)OC4CC4)c3)cc2C#N)cc1 [Example 23, (E)-3-(3-((2-cyano-4′-dimethylaminobiphenyl-4-ylmethyl)cyclohexanecarbonylamino)phenyl)acrylic Acid Cyclopropyl Ester] | 0.9 | 46 |  | 
COC(=O)/C=C/c1cccc(N(Cc2ccc(-c3ccc(N(C)C)cc3C#N)c(C#N)c2)C(=O)C2CCCCC2)c1 [Example 8, (E)-3-(3-(cyclohexanecarbonyl-(2,2′-dicyano-4′-dimethylaminobiphenyl-4-ylmethyl)-amino)phenyl)acrylic acid methyl ester] | 1.6 | 10 |  | 
COC(=O)/C=C/c1cccc(N(Cc2ccc(-c3ccc(N(C)C)cc3)c(C#N)c2)C(=O)C2CCCCC2)c1F [Example 17, (E)-3-(3-((2-cyano-4′-dimethylaminobiphenyl-4-ylmethyl)cyclohexanecarbonylamino)-2-fluorophenyl)acrylic acid methyl ester] | 1.3 | 19 |  | 
COC(=O)/C=C/c1cccc(N(Cc2ccc(-c3ccc(N(C)C)cc3)c(CO)c2)C(=O)C2CCCCC2)c1 [Example 1, (E)-3-(3-(cyclohexanecarbonyl-(4′-dimethylamino-2-hydroxymethylbiphenyl-4-ylmethyl)amino)phenyl)acrylic acid methyl ester] |  |  | 1 | 
COC(=O)/C=C/c1cccc(N(Cc2ccc(-c3ccc(N(C)C)cc3Cl)c(C#N)c2)C(=O)C2CCCCC2)c1 [Example 7, (E)-3-(3-((2′-chloro-2-cyano-4′-dimethylaminobiphenyl-4-ylmethyl)cyclohexane-carbonylamino)phenyl)acrylic acid methyl ester] | 1.2 | 21 |  | 
CCOC(=O)/C=C/c1ccc(F)c(N(Cc2ccc(-c3ccc(N(C)C)cc3)c(C#N)c2)C(=O)C2CCCCC2)c1 [Example 21, (E)-3-(3-((2-cyano-4′-dimethylaminobiphenyl-4-ylmethyl)cyclohexanecarbonylamino)-4-fluorophenyl)acrylic acid ethyl ester] | 1.6 | 9 |  | 
COC(=O)/C=C/c1cc(N(Cc2ccc(-c3ccc(N(C)C)cc3)c(C#N)c2)C(=O)C2CCCCC2)ccc1F [Example 14] | 1.5 | 23 |  | 
COC(=O)/C=C/c1cccc(N(Cc2ccc(-c3ccc(N(C)C)cc3)c(C3OCCO3)c2)C(=O)C2CCCCC2)c1 [Example 3, (E)-3-(3-(cyclohexanecarbonyl-(4′-dimethylamino-2-[1,3]dioxolan-2-ylbiphenyl-4-ylmethyl)amino)phenyl)acrylic acid methyl ester] |  |  | 3 | 
COCc1cc(CN(C(=O)C2CCCCC2)c2cccc(/C=C/C(=O)OC)c2)ccc1-c1ccc(N(C)C)cc1 [Example 2, (E)-3-(3-(cyclohexanecarbonyl-(4′-dimethylamino-2-methoxymethylbiphenyl-4-ylmethyl)amino)phenyl)acrylic acid methyl ester] |  |  | 5 | > 10
COC(=O)/C=C/c1cccc(N(Cc2ccc(-c3ccc(N(C)C)cc3F)c(C#N)c2)C(=O)C2CCCCC2)c1 [Example 6, (E)-3-(3-((2-cyano-4′-dimethylamino-2′-fluorobiphenyl-4-ylmethyl)cyclohexanecarbonylamino)phenyl)acrylic Acid Methyl Ester] | 0.9 | 42 |  | 
CCOC(=O)/C=C/c1cccc(N(Cc2ccc(-c3ccc(N(C)C)cc3)c(C#N)c2)C(=O)C2CCCCC2)c1 [Example 9, (E)-3-(3-((2-cyano-4′-dimethylaminobiphenyl-4-ylmethyl)cyclohexanecarbonylamino)phenyl)acrylic acid ethyl ester] | 1.2 | 40 |  | 

The remaining lines, values ahead:

EC50 [1] [µM] | Emax [2] [%] | Emax [3] [%] | EC50 [µM] | Compound
 | 3 |  |  | CC(C)OC(=O)/C=C/c1ccc(F)c(N(Cc2ccc(-c3ccc(N(C)C)cc3)c(C#N)c2)C(=O)C2CCCCC2)c1 [Example 22, (E)-3-(3-((2-cyano-4′-dimethylaminobiphenyl-4-ylmethyl)cyclohexanecarbonylamino)-4-fluorophenyl)acrylic acid isopropyl ester]
1 | 47 |  |  | CCOC(=O)/C=C/c1cc(F)cc(N(Cc2ccc(-c3ccc(N(C)C)cc3)c(C#N)c2)C(=O)C2CCCCC2)c1 [Example 12, (E)-3-(3-((2-cyano-4′-dimethylaminobiphenyl-4-ylmethyl)cyclohexanecarbonylamino)-5-fluorophenyl)acrylic acid ethyl ester]
0.8 | 20 |  |  | CC(C)OC(=O)/C=C/c1cc(F)cc(N(Cc2ccc(-c3ccc(N(C)C)cc3)c(C#N)c2)C(=O)C2CCCCC2)c1 [Example 13, (E)-3-(3-((2-cyano-4′-dimethylaminobiphenyl-4-ylmethyl)cyclohexanecarbonylamino)-5-fluorophenyl)acrylic acid isopropyl ester]
1.5 | 15 |  |  | COC(=O)/C=C/c1ccc(F)c(N(Cc2ccc(-c3ccc(N(C)C)cc3)c(C#N)c2)C(=O)C2CCCCC2)c1 [Example 20, (E)-3-(3-((2-cyano-4′-dimethylaminobiphenyl-4-ylmethyl)cyclohexanecarbonylamino)-4-fluorophenyl)acrylic acid methyl ester]
 | 42 |  |  | CC(C)OC(=O)/C=C/c1cccc(N(Cc2ccc(-c3ccc(N(C)C)cc3)c(C#N)c2)C(=O)C2CCCCC2)c1F [Example 19, (E)-3-(3-((2-cyano-4′-dimethylaminobiphenyl-4-ylmethyl)cyclohexanecarbonylamino)-2-fluorophenyl)acrylic acid isopropyl ester]
